# Results published in patent publication US10125100B2, “Kinase inhibitors” (Respivert Limited, priority 2014, dated 2018).
# Assays:
# [1] = target: p38 MAPKα (MAPK14) (Homo sapiens (Human), UniProt Q16539); experiment: p38 MAPKα enzyme inhibition (Method 2), Z-LYTE FRET; format: biochemical
# Procedure: (§1) The enzyme inhibitory activities of compounds disclosed herein are determined by FRET using synthetic peptides labelled with both donor and acceptor fluorophores (Z-LYTE, Invitrogen Ltd., Paisley, UK).
# The following two assay variants can be used for determination of p38 MAPKα inhibition.
# The inhibitory activities of test compounds against the p38 MAPKα isoform (MAPK14: Invitrogen) are evaluated indirectly by determining the level of activation/phosphorylation of the down-stream molecule, MAPKAP-K2. The p38 MAPKα protein (80 ng/mL, 2.5 μL) is mixed with the test compound (2.5 μL of either 4 μg/mL, 0.4 μg/mL, 0.04 μg/mL or 0.004 μg/mL) for 2 hr at RT. […] The mixture is incubated for 1 hr at RT. Development reagent (protease, 5 μL) is added for 1 hr prior to detection in a fluorescence microplate reader (Varioskan® Flash, ThermoFisher Scientific).
# This method follows the same steps as Method 1 above, but utilises a higher concentration of the p38 MAPKα protein (2.5 μL of 200 ng/mL protein instead of 2.5 μL of 80 ng/mL protein) for mixing with the test compound (tested at either 1 μg/mL, 0.1 μg/mL, 0.01 μg/mL or 0.001 μg/mL).
# (§2) In all cases, the site-specific protease cleaves non-phosphorylated peptide only and eliminates the FRET signal. Phosphorylation levels of each reaction are calculated using the ratio of coumarin emission (donor) over fluorescein emission (acceptor), for which high ratios indicate high phosphorylation and low ratios indicate low phosphorylation levels.
# [2] = test system: Jurkat cells; experiment: (r) Cell cytotoxicity assay; format: cell-based, human; details: 24 hours
# Procedure, shortened: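 Jurkat cells (1×10^5/well, RPMI + 10% FBS) exposed to compound at 20, 5 or 1 μg/mL final (1.0% DMSO control) for 24 h at 37° C., 5% CO2. Then stained with 7.5 μg/mL propidium iodide for 15 min. % viability = PI-negative cells by flow cytometry, normalized to DMSO.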
# [3] = target: c-Src (Homo sapiens (Human), UniProt P12931); experiment: c-Src enzyme inhibition, Z-LYTE FRET; format: biochemical
# Sequence of c-Src (P12931 whole entry, looked up): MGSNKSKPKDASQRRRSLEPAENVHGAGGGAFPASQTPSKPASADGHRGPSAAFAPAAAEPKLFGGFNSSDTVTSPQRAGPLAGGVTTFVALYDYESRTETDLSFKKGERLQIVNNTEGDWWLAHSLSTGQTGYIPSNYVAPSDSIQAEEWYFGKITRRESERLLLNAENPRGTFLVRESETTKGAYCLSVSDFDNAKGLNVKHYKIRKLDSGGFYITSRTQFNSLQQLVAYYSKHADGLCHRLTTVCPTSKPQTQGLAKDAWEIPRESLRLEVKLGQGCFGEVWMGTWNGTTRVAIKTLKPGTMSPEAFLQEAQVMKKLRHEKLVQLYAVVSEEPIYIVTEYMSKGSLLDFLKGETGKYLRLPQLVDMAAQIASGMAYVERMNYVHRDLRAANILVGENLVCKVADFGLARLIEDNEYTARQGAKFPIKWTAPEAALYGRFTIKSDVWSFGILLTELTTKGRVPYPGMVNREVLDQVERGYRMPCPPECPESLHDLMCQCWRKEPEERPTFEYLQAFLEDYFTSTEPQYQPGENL
# Procedure: as §1
# (§3) The inhibitory activities of compounds of the invention against c-Src and Syk enzymes (Invitrogen), are evaluated in a similar fashion to that described hereinabove. The relevant enzyme (3000 ng/mL or 2000 ng/mL respectively, 2.5 μL) is incubated with the test compound (either 1 μg/mL, 0.1 μg/mL, 0.01 μg/mL, or 0.001 μg/mL, 2.5 μL each) for 2 hr at RT. The FRET peptides (8 μM, 2.5 μL), and appropriate ATP solutions (2.5 μL, 800 μM for c-Src, and 60 μM ATP for Syk) are then added to the enzymes/compound mixtures and the mixture incubated for 1 hr. Development reagent (protease, 5 μL) is added for 1 hr prior to detection in a fluorescence microplate reader (Varioskan® Flash, ThermoFisher Scientific).
# as §2
# [4] = target: Syk (Homo sapiens (Human), UniProt P43405); experiment: Syk enzyme inhibition, Z-LYTE FRET; format: biochemical
# Procedure: as §1
# as §3, with “The” for “The inhibitory activities of compounds of the invention against c-Src and Syk enzymes (Invitrogen), are evaluated in a similar fashion to that described hereinabove. The”
# as §2
# Sequence of p38 MAPKα (MAPK14) (Q16539 whole entry): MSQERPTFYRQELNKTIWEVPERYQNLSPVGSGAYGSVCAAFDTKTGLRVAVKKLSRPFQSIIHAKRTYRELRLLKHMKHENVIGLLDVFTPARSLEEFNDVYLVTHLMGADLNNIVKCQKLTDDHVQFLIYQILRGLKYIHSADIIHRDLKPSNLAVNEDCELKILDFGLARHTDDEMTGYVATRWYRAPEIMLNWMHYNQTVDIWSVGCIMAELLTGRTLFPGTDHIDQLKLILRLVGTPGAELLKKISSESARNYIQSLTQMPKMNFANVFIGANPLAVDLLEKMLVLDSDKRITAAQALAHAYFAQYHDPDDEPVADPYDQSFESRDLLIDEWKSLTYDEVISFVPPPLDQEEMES
SMILES,IC50 [1],% Viability at 1 μg/mL [2],% Viability at 5 μg/mL [2],% Viability at 20 μg/mL [2],IC50 [3],IC50 [4]
"COc1cc(Nc2cc(Oc3ccc(NC(=O)Nc4cc(C(C)(C)C)cc(NS(C)(=O)=O)c4OC)c4ccccc34)ccn2)ccc1C(=O)N(C)CCCN1CCOCC1 [17(af), 4-[[4-[[4-[[5-tert-butyl-3-(methanesulfonamido)-2-methoxy-phenyl]carbamoylamino]-1-naphthyl]oxy]-2-pyridyl]amino]-2-methoxy-N-methyl-N-(3-morpholinopropyl)benzamide]",0.005 µM,96.7%,76.2%,54.1%,–,–
"COc1c(NC(=O)Nc2ccc(Oc3ccnc(Nc4ccc(C(=O)O)c(N(C)C)c4)c3)c3ccccc23)cc(C(C)(C)C)cc1NS(C)(=O)=O [17(am), 4-[[4-[[4-[[5-tert-butyl-3-(methanesulfonamido)-2-methoxy-phenyl]carbamoylamino]-1-naphthyl]oxy]-2-pyridyl]amino]-2-(dimethylamino)benzoic acid]",0.004 µM,103.4%,90.5%,32.5%,0.068 µM,0.124 µM
"COc1cc(Nc2cc(Oc3ccc(NC(=O)Nc4cc(C(C)(C)C)cc(NS(C)(=O)=O)c4OC)c4ccccc34)ccn2)ccc1C(=O)NC(CO)(CO)CO [17(cm), 4-((4-((4-(3-(5-(tert-Butyl)-2-methoxy-3-(methylsulfonamido)phenyl)ureido)naphthalen-1-yl)oxy)pyridin-2-yl)amino)-N-(1,3-dihydroxy-2-(hydroxymethyl)propan-2-yl)-2-methoxybenzamide]",0.047 µM,95.9%,77.0%,14.5%,0.029 µM,0.082 µM
"COc1cc(Nc2cc(Oc3ccc(NC(=O)Nc4cc(C(C)(C)C)cc(NC(=O)COP(=O)(O)O)c4OC)c4ccccc34)ccn2)ccc1C(=O)NCCN1CC[S+]([O-])CC1 [17(cp), 2-((5-(tert-Butyl)-2-methoxy-3-(3-(4-((2-((3-methoxy-4-((2-(1-oxidothiomorpholino)-ethyl)carbamoyl)phenyl)amino)pyridin-4-yl)oxy)naphthalen-1-yl)ureido)phenyl)amino)-2-oxoethyl dihydrogen phosphate]",–,97.6%,96.9%,94.7%,0.02 µM,0.393 µM
"COc1cc(Nc2cc(Oc3ccc(NC(=O)Nc4cc(C(C)(C)C)cc(NS(C)(=O)=O)c4OC)c4ccccc34)ccn2)ccc1S(=O)(=O)N(C)CCN1CCOCC1 [17(o), 1-[5-tert-butyl-3-(methanesulfonamido)-2-methoxy-phenyl]-3-[4-[[2-[3-methoxy-4-[methyl(2-morpholinoethyl)sulfamoyl]anilino]-4-pyridyl]oxy]-1-naphthyl]urea]",–,–,–,–,0.232 µM,0.948 µM
"COCCOCCOCCOc1ccc(Nc2cc(Oc3ccc(NC(=O)Nc4cc(C(C)(C)C)cc(NS(C)(=O)=O)c4OC)c4ccccc34)ccn2)cc1C#N [Example 8, N-(5-(tert-Butyl)-3-(3-(4-((2-((3-cyano-4-(2-(2-(2-methoxyethoxy)ethoxy)ethoxy)phenyl)amino)pyridin-4-yl)oxy)naphthalen-1-yl)ureido)-2-methoxyphenyl)methanesulfonamide]",0.214 µM,–,–,–,–,–
"COc1cc(Nc2cc(Oc3ccc(NC(=O)Nc4cc(C(C)(C)C)cc(NS(C)(=O)=O)c4OC)c4ccccc34)ccn2)ccc1S(=O)(=O)N(C)CCCN1CCOCC1 [Example 13, 1-[5-tert-Butyl-3-(methanesulfonamido)-2-methoxy-phenyl]-3-[4-[[2-[3-methoxy-4-[methyl(3-morpholinopropyl)sulfamoyl]anilino]-4-pyridyl]oxy]-1-naphthyl]urea]",–,–,–,–,0.15 µM,0.809 µM
"COc1cc(Nc2cc(Oc3ccc(NC(=O)Nc4cc(C(C)(C)C)cc(NS(C)(=O)=O)c4OC)c4ccccc34)ccn2)ccc1S(=O)(=O)CCCN1CCOCC1 [Example 20, N-(5-(tert-Butyl)-2-methoxy-3-(3-(4-((2-((3-methoxy-4-((3-morpholinopropyl)sulfonyl)phenyl)-amino)pyridin-4-yl)oxy)naphthalen-1-yl)ureido)phenyl)methanesulfonamide]",–,104.0%,99.3%,91.8%,0.077 µM,0.144 µM
COc1c(NC(=O)Nc2ccc(Oc3ccnc(Nc4ccc(C(=O)NCCN5CCOCC5)c(N(C)C)c4)c3)c3ccccc23)cc(C(C)(C)C)cc1NS(C)(=O)=O [Example 21],–,101.2%,82.4%,77.1%,0.016 µM,0.015 µM
"COc1cc(Nc2cc(Oc3ccc(NC(=O)Nc4cc(C(C)(C)C)cc(NS(C)(=O)=O)c4OC)c4ccccc34)ccn2)cc(OC)c1C(=O)NCCN1CCN(C)CC1 [Example 22, 4-((4-((4-(3-(5-(tert-Butyl)-2-methoxy-3-(methylsulfonamido)phenyl)ureido)naphthalen-1-yl)oxy)pyridin-2-yl)amino)-2,6-dimethoxy-N-(2-(4-methylpiperazin-1-yl)ethyl)benzamide]",0.006 µM,102.8%,96.6%,42.9%,0.017 µM,0.138 µM
"COc1cc(Nc2cc(Oc3ccc(NC(=O)Nc4cc(C(C)(C)C)cc(NS(C)(=O)=O)c4OC)c4ccccc34)ccn2)ccc1C(=O)NCCN1CCN(C2CC2)CC1 [Example 26, 4-((4-((4-(3-(5-(tert-Butyl)-2-methoxy-3-(methylsulfonamido)phenyl)ureido)naphthalen-1-yl)oxy)pyridin-2-yl)amino)-N-(2-(4-cyclopropylpiperazin-1-yl)ethyl)-2-methoxybenzamide]",0.04 µM,94.8%,84.6%,76.6%,–,–
"COc1cc(Nc2cc(Oc3ccc(NC(=O)Nc4cc(C(C)(C)C)cc(NS(C)(=O)=O)c4OC)c4ccccc34)ccn2)cc(OC)c1C(=O)NCCN(C)C [Example 39, 4-((4-((4-(3-(5-(tert-Butyl)-2-methoxy-3-(methylsulfonamido)phenyl)ureido)naphthalen-1-yl)oxy)pyridin-2-yl)amino)-N-(2-(dimethylamino)ethyl)-2,6-dimethoxybenzamide]",0.006 µM,93.9%,87.7%,1.5%,0.017 µM,0.257 µM
"COc1c(NC(=O)Nc2ccc(Oc3ccnc(Nc4ccc(P(C)(=O)O)c(N(C)C)c4)c3)c3ccccc23)cc(C(C)(C)C)cc1NS(C)(=O)=O [Example 68, [4-[[4-[[4-[[5-tert-Butyl-3-(methanesulfonamido)-2-methoxy-phenyl]carbamoylamino]-1-naphthyl]oxy]-2-pyridyl]amino]-2-(dimethylamino)phenyl]-methyl-phosphinic acid]",–,95.6%,92.7%,90.2%,–,–
"COc1cc(Nc2cc(Oc3ccc(NC(=O)Nc4cc(C(C)(C)C)cc(NS(C)(=O)=O)c4OC)c4ccccc34)ccn2)ccc1CP(C)(=O)O [Example 70, (4-((4-((4-(3-(5-(tert-Butyl)-2-methoxy-3-(methylsulfonamido)phenyl)ureido)naphthalen-1-yl)oxy)pyridin-2-yl)amino)-2-methoxybenzyl)(methyl)phosphinic acid]",–,95.3%,91.9%,63.8%,–,–
